# According to publication PMC6631010, “Development of a Simple Assay Method for Adenosine Deaminase via Enzymatic Formation of an Inosine-Tb^3+ Complex” (Sensors (Basel, Switzerland), 2019):
# Molecular target: T1, Adenosine deaminase (ADA) (Bos taurus, UniProt P56658)
# T1 sequence (P56658 2-363): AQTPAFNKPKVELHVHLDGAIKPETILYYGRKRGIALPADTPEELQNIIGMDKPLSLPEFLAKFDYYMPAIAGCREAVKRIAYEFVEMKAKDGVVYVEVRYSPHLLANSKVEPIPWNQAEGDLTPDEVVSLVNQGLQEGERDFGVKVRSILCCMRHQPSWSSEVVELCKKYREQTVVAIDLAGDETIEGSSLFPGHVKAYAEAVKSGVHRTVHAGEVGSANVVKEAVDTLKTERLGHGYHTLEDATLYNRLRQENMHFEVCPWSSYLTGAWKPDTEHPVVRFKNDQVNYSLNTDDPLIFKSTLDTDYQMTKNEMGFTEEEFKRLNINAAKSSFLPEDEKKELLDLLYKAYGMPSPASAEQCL
# Test: biochemical
compound,measurement,value
"CCCCCC[C@@H]([C@@H](C)O)n1cnc2c(N)ncnc21 (racemic) [EHNA, erythro-9-(2-hydroxy-3-nonyl)adenine]",IC50,64 nM
